# Reference: US20260027190A1, “OVARIAN TUMOR DEUBIQUITINASE OXIDATION AND USES THEREOF” (The University of Vermont and State Agricultural College, priority 2022, published 2026)
# Residues, ends and D or L forms follow the SMILES beside them. *: point of attachment. Cbz = O=C(OCc1ccccc1)*
# B1: C23S GLRX: catalytically inactive C23S mutant GLRX recombinant protein (protein, UniProt P35754 2-106, looked up, variant C23S)
# Glutaredoxin-1: AQEFVNCKIQPGKVVVFIKPTSPYCRRAQEILSQLPIKQGLLEFVDITATNHTNEIQDYLQQLTGARTVPRVFIGKDCIGGCSDLVSLQQSGELLTRLKQIGALQ
# Experiments:
# [1] = system: mouse tracheal epithelial (MTE) cells; assay: Total GSH measurement (DTNB assay) in MTE cells; assay type: cell-based
# Procedure: It has been previously shown that the pleotropic cytokine IL1B augments glycolysis in lung epithelial cells, and that interleukin 1B (IL1B) is linked to oxidative stress. The pentose phosphate pathway, an offshoot of glycolysis, regulates the redox environment by providing nicotinamide adenine dinucleotide phosphate (NADPH) reducing equivalents necessary for glutathione (GSH) homeostasis. The effects of GSH in response to IL1B were examined. Briefly, GSH was measured using a 5,5′-dithio-bis (2-nitrobenzoic acid) (DTNB) assay in both control and IL1B-stimulated mouse tracheal epithelial cells. […] Statistics on the left panel represent the total GSH levels, without differentiating between labeled and unlabeled portions of GSH (P-value*<0.05, ****<0.0001).
# (§1) A regulator of GSH homeostasis is the transporter system xC-, which exports glutamate and concomitantly imports cystine in a 1:1 ratio. Once inside the cells, cystine is reduced to two cysteines, the latter being the rate limiting amino acid required for GSH synthesis. These relationships were examined further. […] To address whether IL1B-induced increases in GSH are system xC- dependent, two system xC- inhibitors, erastin (Er) and sulfasalazine (SAS) were used. Cells were pretreated for one hour, followed by IL1B treatment for 24 hours. Then, GSH levels were measured in cells exposed to increasing doses of Er or SAS (FIG. 2G). Extracellular glutamate levels in cell culture supernatant of cells pretreated with 0.5 micromolar Er (left) or 100 micromolar SAS (right) for 1 hour before IL1B stimulation were also measured (FIG. 2H). […] System xC- inhibition is known to induce ferroptosis, an iron-dependent mode of cell death characterized by increased lipid peroxidation. However, no changes in cell viability using erastin (5 micromolar) or sulfasalazine (500 micromolar) were detected (FIG. 2I; P-value*<0.05, ***<0.001, ****<0.0001).
# (§2) Primary mouse tracheal epithelial (MTE) cells were isolated from C57BL/6NJ wild-type or C57BL6/NJ mice lacking Glrx1 gene and cultured. Cells were grown on collagen coated plastic plates or transwell inserts with media change every 2 days until confluency. For interleukin 1B (IL1B) treatment: cells were incubated in plain Dulbecco's Modified Eagle Medium (DMEM): F12 media containing 6 mM glucose and 2 mM glutamine overnight followed by stimulation with 10 ng/ml IL1B or 0.1% bovine serum albumin (BSA) in phosphate buffered saline (PBS) (vehicle control) for 24 hours. Treatment with crastin, sulfasalazine or BSO occurred 1 hour before IL1B stimulation. Media and cells were collected for further analysis. For growing H522 and OTUB1-CRISPR-H522 cells: Roswell Park Memorial Institute (RPMI) media supplemented with 10% fetal bovine serum (FBS) and 1% pen/strep was used to grow the cells. Plasmid over-expression and OTUB1 knock-down experiments were done when cells were 60-70% confluent.
# Cell lysates were prepared in 100 mM potassium phosphate buffer containing 0.6% sulfosalicylic acid, 1 mM ethylenediaminetetraacetic acid (EDTA) and 0.01% triton-x-100. To measure total glutathione (GSH), equal amounts of proteins were incubated with 3 micromolar 5,5′-dithio-bis (2-nitrobenzoic acid) (DTNB) reagent and 2.25 microgram/ml glutathione reductase followed by the addition of 240 micromolar Nicotinamide adenine dinucleotide phosphate (NADPH). Kinetic absorbance was measured every minute at 412 nm for 20 minutes. […]
# [2] = system: SLC7A11; assay: SLC7A11 non-reducing Western blot in MTE cells; assay type: cell-based, mouse; details: MG132 5 micrograms/ml, 24 hours
# Procedure: OTUB1 was previously shown to interfere with ubiquitination and subsequent proteasomal degradation of SLC7A11. A SLC7A11 non-reducing Western blot using MTE cells pretreated with 5 micrograms/ml MG132 or 10 ng/ml IL1B for 24 hours with ACTB used as a loading control was performed (FIG. 7A). In addition, an assessment of GSH levels in MG132-(5 micrograms/ml, 24 hours) (FIG. 7B, left) or bortezomib-(FIG. 7B, right) (0.3 micromolar, 24 hours) treated MTE cells was undertaken (P-value***<0.001, ****<0.0001). Extracellular glutamate levels in MG132-treated MTE cells were also assessed (5 micrograms/ml, 24 hours) (FIG. 7C) (P-value***<0.001, ****<0.0001). The proteasome inhibitors MG132 or bortezomib increased SCL7A11, GSH and extracellular glutamate levels in tracheal epithelial cells (FIGS. 7A-7C), identifying the importance of proteasomal degradation of SLC7A11 in regulating system xC- and glutathione levels.
# Bio-Rad DC protein estimation kit was used to determine protein concentration in cell lysates. Equal amounts of proteins were resolved using sodium dodecyl sulfate (SDS)-polyacrylamide gel electrophoresis and transferred to polyvinylidene difluoride (PVDF) membranes, blocked in 5% BSA and incubated with primary antibodies overnight. Membranes were subsequently incubated with peroxidase-conjugated secondary antibodies for one hour and then visualized using chemiluminescence.
# [3] = system: mouse tracheal epithelial (MTE) cells; assay: Extracellular glutamate in cell culture supernatant of MTE cells; assay type: cell-based
# Source text: as §1, §2
# Glutamate in media was measured using Biovision kit following manufacturer's protocol.
# [4] = system: mouse tracheal epithelial (MTE) cells; assay: Calcein AM cell viability in MTE cells; assay type: cell-based; details: sulfasalazine 500 micromolar
# Source text: Invitrogen Live/Dead viability/cytotoxicity kit was used to measure cell viability according to manufacturer's instruction. Data was expressed as percentage survival compared to control untreated cells.
# [5] = system: OTUB1; assay: OTUB1-SSG: GSH immunoprecipitation followed by OTUB1 Western blot; assay type: cell-based, mouse; details: cells treated with recombinant protein
# Procedure: (§3) OTUB1 was one of the PSSG targets detected in IL1B-stimulated epithelial cells raising the possibility that S-glutathionylation of OTUB1 affects the stability of SLC7A11. To investigate this, immunoprecipitation of GSH followed by Western Blotting of OTUB1 in MTE cells treated with vehicle or IL1B was performed. Dithiothreitol (DTT) was incubated with cell lysates prior to immunoprecipitation as a negative control. OTUB1 levels from whole cell lysates were used as the input control. Increases in OTUB1 S-glutathionylation (OTUB1-SSG) in response to IL1B were observed, with further increases occurring in cells lacking Glrx (FIG. 4G), consistent with the role of GLRX as a deglutathionylating enzyme. Western blots were performed using cells treated with the WT- or C23S-mutant GLRX recombinant protein to examine the presence of glutaredoxin (FIG. 4H) and total PSSG (FIG. 4I) (P-value*<0.05, **<0.01, ***<0.001, ****<0.0001). GAPDH was used as a loading control. Glutathione was evaluated in MTE cells treated with recombinant WT- or C23S-mutant GLRX (FIG. 4J) and glutamate in cell culture supernatant of MTE cells treated with WT or the C23S mutant GLRX was also evaluated (FIG. 4K). […]
# [6] = system: mouse tracheal epithelial (MTE) cells; assay: Total PSSG in MTE cells treated with recombinant GLRX; assay type: cell-based; details: direct administration of recombinant protein to MTE cells
# Procedure: as §3, with “GAPDH was used as a loading control.” left out
# Cell lysates were prepared in 100 mM potassium phosphate buffer containing 0.6% sulfosalicylic acid, 1 mM ethylenediaminetetraacetic acid (EDTA) and 0.01% triton-x-100. […] Kinetic absorbance was measured every minute at 412 nm for 20 minutes. […]
# [7] = MG132 5 micrograms/ml, 24 hours, MTE cells
# [8] = direct administration of recombinant protein to MTE cells
molecule,measurement,setting,value
CC(C)C[C@@H](C=O)NC(=O)[C@H](CC(C)C)NC(=O)[C@H](CC(C)C)NC(=O)OCc1ccccc1 [MG132] (Cbz-Leu-Leu-Leu-aldehyde),GSH levels,[1]; [7],increased
same,SLC7A11 levels,[2],increased
same,extracellular glutamate levels,[3]; [7],increased
CC(C)C[C@H](NC(=O)[C@H](Cc1ccccc1)NC(=O)c1cnccn1)B(O)O [bortezomib],GSH levels,"[1]; bortezomib 0.3 micromolar, 24 hours, MTE cells",increased
O=C(O)c1cc(/N=N/c2ccc(S(=O)(=O)Nc3ccccn3)cc2)ccc1O [sulfasalazine],IL1B-induced increases in GSH,"[1]; MTE cells pretreated 1 hour with increasing doses of Er or SAS, then IL1B 24 hours",significantly decreased
same,cell viability,[4],no changes
same,IL1B-induced extracellular glutamate levels,[3]; MTE cells pretreated with 100 micromolar SAS for 1 hour before IL1B stimulation,significantly decreased
B1,GSH levels,[1]; [8],did not elicit these effects
same,OTUB1-SSG (OTUB1 S-glutathionylation),[5],not
same,overall PSSG,[6],did not elicit these effects
same,extracellular glutamate,[3]; [8],did not elicit these effects
